Publication PMC9661477, “New Dual P-Glycoprotein (P-gp) and Human Carbonic Anhydrase XII (hCA XII) Inhibitors as Multidrug Resistance (MDR) Reversers in Cancer Cells” (Journal of Medicinal Chemistry, 2022)
Read-outs that look alike come from different tables or passages of the source.

Columns and labels:
hCA I = hCA I (Homo sapiens, UniProt P00915); assay: stopped-flow CO2 hydrase assay, hCA I; conditions: read-out: Ki hCA I; stopped-flow technique, mean from three different assays
Excerpt: (§1) An SX.18MV-R Applied Photophysics (Oxford, U.K.) stopped-flow instrument has been used to assay the catalytic/inhibition of various CA isozymes.[38] […] The inhibition constants were obtained by nonlinear least-squares methods using the Cheng–Prusoff equation, as reported earlier,[32] and represent the mean from at least three different determinations.

hCA II = hCA II (Homo sapiens, UniProt P00918); assay: stopped-flow CO2 hydrase assay, hCA II; conditions: read-out: Ki hCA II; stopped-flow technique, mean from three different assays
Excerpt: as §1

hCA IX = hCA IX (Homo sapiens, UniProt Q16790); assay: stopped-flow CO2 hydrase assay, hCA IX
Excerpt: as §1

[1] = read-out: Ki hCA IX, stopped-flow technique, mean from three different assays

Chain of hCA I (P00915 whole entry): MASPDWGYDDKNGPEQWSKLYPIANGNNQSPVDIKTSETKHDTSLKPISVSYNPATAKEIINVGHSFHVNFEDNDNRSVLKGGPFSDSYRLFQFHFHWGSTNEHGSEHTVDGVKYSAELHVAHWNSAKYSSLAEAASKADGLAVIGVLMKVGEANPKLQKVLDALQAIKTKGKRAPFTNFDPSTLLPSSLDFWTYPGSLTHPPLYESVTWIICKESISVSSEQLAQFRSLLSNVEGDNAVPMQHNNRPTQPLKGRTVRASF

| SMILES | Ki (hCA I) | Ki (hCA II) | Ki (hCA IX; [1]) | Ki (hCA IX) |
| --- | --- | --- | --- | --- |
| COc1cc(/C=C/C(=O)OCCCCCN(CCCOC(=O)/C=C/c2cc(OC)c(OC)c(OC)c2)CCCOc2ccc3ccc(=O)oc3c2)cc(OC)c1OC [Compound 1, (E)-5-((3-((2-Oxo-2H-chromen-7-yl)oxy)propyl)(3-(((E)-3-(3,4,5-trimethoxyphenyl)acryloyl)oxy)propyl)amino)pentyl 3-(3,4,5-Trimethoxyphenyl)acrylate] | > 10000 nM | > 10000 nM | 39.5 nM | – |
| COc1cc(/C=C/C(=O)OCCCCCN(CCCOC(=O)c2cc(OC)c(OC)c(OC)c2)CCCOc2ccc3ccc(=O)oc3c2)cc(OC)c1OC [Compound 2, (E)-3-((3-((2-Oxo-2H-chromen-7-yl)oxy)propyl)(5-((3-(3,4,5-trimethoxyphenyl)acryloyl)oxy)pentyl)amino)propyl 3,4,5-Trimethoxybenzoate] | > 10000 nM | > 10000 nM | 24.2 nM | – |
| COc1cc(/C=C/C(=O)OCCCCCN(CCCOC(=O)c2c3ccccc3cc3ccccc23)CCCOc2ccc3ccc(=O)oc3c2)cc(OC)c1OC [Compound 3, (E)-3-((3-((2-Oxo-2H-chromen-7-yl)oxy)propyl)(5-((3-(3,4,5-trimethoxyphenyl)acryloyl)oxy)pentyl)amino)propyl Anthracene-9-carboxylate] | > 10000 nM | > 10000 nM | 7.9 nM | < 10 nM |
| COc1cc(/C=C/C(=O)OCCCN(CCCCCOC(=O)c2cc(OC)c(OC)c(OC)c2)CCCOc2ccc3ccc(=O)oc3c2)cc(OC)c1OC [Compound 4, (E)-5-((3-((2-Oxo-2H-chromen-7-yl)oxy)propyl)(3-((3-(3,4,5-trimethoxyphenyl)acryloyl)oxy)propyl)amino)pentyl 3,4,5-Trimethoxybenzoate] | > 10000 nM | > 10000 nM | 58.8 nM | – |
| COc1cc(C(=O)OCCCCCN(CCCOC(=O)c2c3ccccc3cc3ccccc23)CCCOc2ccc3ccc(=O)oc3c2)cc(OC)c1OC [Compound 6, 3-((3-((2-Oxo-2H-chromen-7-yl)oxy)propyl)(5-((3,4,5-trimethoxybenzoyl)oxy)pentyl)amino)propyl Anthracene-9-carboxylate] | > 10000 nM | > 10000 nM | 36.2 nM | – |
| COc1cc(/C=C/C(=O)OCCCN(CCCCCOC(=O)c2c3ccccc3cc3ccccc23)CCCOc2ccc3ccc(=O)oc3c2)cc(OC)c1OC [Compound 7, (E)-5-((3-((2-Oxo-2H-chromen-7-yl)oxy)propyl)(3-((3-(3,4,5-trimethoxyphenyl)acryloyl)oxy)propyl)amino)pentyl Anthracene-9-carboxylate] | > 10000 nM | > 10000 nM | 104 nM | – |
| COc1cc(C(=O)OCCCN(CCCCCOC(=O)c2c3ccccc3cc3ccccc23)CCCOc2ccc3ccc(=O)oc3c2)cc(OC)c1OC [Compound 8, 5-((3-((2-Oxo-2H-chromen-7-yl)oxy)propyl)(3-((3,4,5-trimethoxybenzoyl)oxy)propyl)amino)pentyl Anthracene-9-carboxylate] | > 10000 nM | > 10000 nM | 93.7 nM | – |
| O=C(OCCCCCN(CCCOC(=O)c1c2ccccc2cc2ccccc12)CCCOc1ccc2ccc(=O)oc2c1)c1c2ccccc2cc2ccccc12 [Compound 9, 3-((5-((Anthracene-9-carbonyl)oxy)pentyl)(3-((2-oxo-2H-chromen-7-yl)oxy)propyl)amino)propyl Anthracene-9-carboxylate] | > 10000 nM | > 10000 nM | 137 nM | – |
| COc1cc(/C=C/C(=O)OCCCCCCN(CCCOC(=O)/C=C/c2cc(OC)c(OC)c(OC)c2)CCCOc2ccc3ccc(=O)oc3c2)cc(OC)c1OC [Compound 10, (E)-6-((3-((2-Oxo-2H-chromen-7-yl)oxy)propyl)(3-(((E)-3-(3,4,5-trimethoxyphenyl)acryloyl)oxy)propyl)amino)hexyl 3-(3,4,5-Trimethoxyphenyl)acrylate] | > 10000 nM | > 10000 nM | 8.1 nM | < 10 nM |
| COc1cc(/C=C/C(=O)OCCCCCCN(CCCOC(=O)c2cc(OC)c(OC)c(OC)c2)CCCOc2ccc3ccc(=O)oc3c2)cc(OC)c1OC [Compound 11, (E)-3-((3-((2-Oxo-2H-chromen-7-yl)oxy)propyl)(6-((3-(3,4,5-trimethoxyphenyl)acryloyl)oxy)hexyl)amino)propyl 3,4,5-Trimethoxybenzoate] | > 10000 nM | > 10000 nM | 50.2 nM | – |
| COc1cc(/C=C/C(=O)OCCCCCCN(CCCOC(=O)c2c3ccccc3cc3ccccc23)CCCOc2ccc3ccc(=O)oc3c2)cc(OC)c1OC [Compound 12, (E)-3-((3-((2-Oxo-2H-chromen-7-yl)oxy)propyl)(6-((3-(3,4,5-trimethoxyphenyl)acryloyl)oxy)hexyl)amino)propyl Anthracene-9-carboxylate] | > 10000 nM | > 10000 nM | 26.8 nM | – |
| COc1cc(/C=C/C(=O)OCCCN(CCCCCCOC(=O)c2cc(OC)c(OC)c(OC)c2)CCCOc2ccc3ccc(=O)oc3c2)cc(OC)c1OC [Compound 13, (E)-6-((3-((2-Oxo-2H-chromen-7-yl)oxy)propyl)(3-((3-(3,4,5-trimethoxyphenyl)acryloyl)oxy)propyl)amino)hexyl 3,4,5-Trimethoxybenzoate] | > 10000 nM | > 10000 nM | 71.7 nM | – |
| COc1cc(C(=O)OCCCCCCN(CCCOC(=O)c2c3ccccc3cc3ccccc23)CCCOc2ccc3ccc(=O)oc3c2)cc(OC)c1OC [Compound 15, 3-((3-((2-Oxo-2H-chromen-7-yl)oxy)propyl)(6-((3,4,5-trimethoxybenzoyl)oxy)hexyl)amino)propyl Anthracene-9-carboxylate] | > 10000 nM | > 10000 nM | 54.1 nM | – |
| COc1cc(/C=C/C(=O)OCCCN(CCCCCCOC(=O)c2c3ccccc3cc3ccccc23)CCCOc2ccc3ccc(=O)oc3c2)cc(OC)c1OC [Compound 16, (E)-6-((3-((2-Oxo-2H-chromen-7-yl)oxy)propyl)(3-((3-(3,4,5-trimethoxyphenyl)acryloyl)oxy)propyl)amino)hexyl Anthracene-9-carboxylate] | > 10000 nM | > 10000 nM | 148 nM | – |
| COc1cc(C(=O)OCCCN(CCCCCCOC(=O)c2c3ccccc3cc3ccccc23)CCCOc2ccc3ccc(=O)oc3c2)cc(OC)c1OC [Compound 17, 6-((3-((2-Oxo-2H-chromen-7-yl)oxy)propyl)(3-((3,4,5-trimethoxybenzoyl)oxy)propyl)amino)hexyl Anthracene-9-carboxylate] | > 10000 nM | > 10000 nM | 123 nM | – |
| O=C(OCCCCCCN(CCCOC(=O)c1c2ccccc2cc2ccccc12)CCCOc1ccc2ccc(=O)oc2c1)c1c2ccccc2cc2ccccc12 [Compound 18, 3-((6-((Anthracene-9-carbonyl)oxy)hexyl)(3-((2-oxo-2H-chromen-7-yl)oxy)propyl)amino)propyl Anthracene-9-carboxylate] | > 10000 nM | > 10000 nM | 166 nM | – |
| COc1cc(/C=C/C(=O)OCCCCCCCN(CCCOC(=O)/C=C/c2cc(OC)c(OC)c(OC)c2)CCCOc2ccc3ccc(=O)oc3c2)cc(OC)c1OC [Compound 19, (E)-7-((3-((2-Oxo-2H-chromen-7-yl)oxy)propyl)(3-(((E)-3-(3,4,5-trimethoxyphenyl)acryloyl)oxy)propyl)amino)heptyl 3-(3,4,5-Trimethoxyphenyl)acrylate] | > 10000 nM | > 10000 nM | 27.8 nM | – |
| COc1cc(/C=C/C(=O)OCCCCCCCN(CCCOC(=O)c2cc(OC)c(OC)c(OC)c2)CCCOc2ccc3ccc(=O)oc3c2)cc(OC)c1OC [Compound 20, (E)-3-((3-((2-Oxo-2H-chromen-7-yl)oxy)propyl)(7-((3-(3,4,5-trimethoxyphenyl)acryloyl)oxy)heptyl)amino)propyl 3,4,5-Trimethoxybenzoate] | > 10000 nM | > 10000 nM | 5.2 nM | < 10 nM |
| COc1cc(/C=C/C(=O)OCCCCCCCN(CCCOC(=O)c2c3ccccc3cc3ccccc23)CCCOc2ccc3ccc(=O)oc3c2)cc(OC)c1OC [Compound 21, (E)-3-((3-((2-Oxo-2H-chromen-7-yl)oxy)propyl)(7-((3-(3,4,5-trimethoxyphenyl)acryloyl)oxy)heptyl)amino)propyl Anthracene-9-carboxylate] | > 10000 nM | > 10000 nM | 14.2 nM | – |
| COc1cc(/C=C/C(=O)OCCCN(CCCCCCCOC(=O)c2cc(OC)c(OC)c(OC)c2)CCCOc2ccc3ccc(=O)oc3c2)cc(OC)c1OC [Compound 22, (E)-7-((3-((2-Oxo-2H-chromen-7-yl)oxy)propyl)(3-((3-(3,4,5-trimethoxyphenyl)acryloyl)oxy)propyl)amino)heptyl 3,4,5-Trimethoxybenzoate] | > 10000 nM | > 10000 nM | 43.8 nM | – |
| COc1cc(C(=O)OCCCCCCCN(CCCOC(=O)c2cc(OC)c(OC)c(OC)c2)CCCOc2ccc3ccc(=O)oc3c2)cc(OC)c1OC [Compound 23, 7-((3-((2-Oxo-2H-chromen-7-yl)oxy)propyl)(3-((3,4,5-trimethoxybenzoyl)oxy)propyl)amino)heptyl 3,4,5-Trimethoxybenzoate] | > 10000 nM | > 10000 nM | 18.3 nM | – |
| COc1cc(C(=O)OCCCCCCCN(CCCOC(=O)c2c3ccccc3cc3ccccc23)CCCOc2ccc3ccc(=O)oc3c2)cc(OC)c1OC [Compound 24, 3-((3-((2-Oxo-2H-chromen-7-yl)oxy)propyl)(7-((3,4,5-trimethoxybenzoyl)oxy)heptyl)amino)propyl Anthracene-9-carboxylate] | > 10000 nM | > 10000 nM | 38.5 nM | – |
| COc1cc(/C=C/C(=O)OCCCN(CCCCCCCOC(=O)c2c3ccccc3cc3ccccc23)CCCOc2ccc3ccc(=O)oc3c2)cc(OC)c1OC [Compound 25, (E)-7-((3-((2-Oxo-2H-chromen-7-yl)oxy)propyl)(3-((3-(3,4,5-trimethoxyphenyl)acryloyl)oxy)propyl)amino)heptyl Anthracene-9-carboxylate] | > 10000 nM | > 10000 nM | 71.1 nM | – |
